Experimental data taken from patent US20140230091A1, “MODIFIED PLANTS WITH INCREASED OIL CONTENT” (BROOKHAVEN SCIENCE ASSOCIATES, LLC, priority 2011, published 2014).

System: genes encoding plastidic ACCase subunits
Test: qPCR analysis of genes encoding plastidic ACCase subunits
Type: cell-based, Brassica napus
Conditions: 10 mM Tween-80, three hour treatment; mean of three repeats ± SE; 0 mM = 1
Procedure: RNA was isolated from cultured cells using Trizol Reagent (Invitrogen, Carlsbad, Calif., USA) and was treated with DNase. cDNA was synthesized from 1 μg of total RNA using the Bio-Rad (Hercules, Calif., USA) iScript cDNA synthesis kit. qPCR was performed with 1:50 of the cDNA product and SSO Fast EvaGreen supermix (Bio-Rad). Reference genes were ACT7 and UBC21 using primers as described previously (Chen et al. 2010 Anal Biochem, 405, 138-140). Primers for experimental genes were as follows: BC, biotin carboxylase (GenBank:A Y034410.1), F-[…] (SEQ ID No. 28) and R-[…] (SEQ ID No. 29); BCCP, biotin carboxyl carrier protein (GenBank: X90730.1), F-[…] (SEQ ID No. 30), R-[…] (SEQ ID No. 31); CT-α, carboxytransferase-α (GenBank GQ341624.1), F-[…] (SEQ ID No. 32), R-[…] (SEQ ID No. 33); CT-β, carboxytransferase-β (GenBank: Z50868.1), F-[…] (SEQ ID No. 34), R-[…] (SEQ ID No. 35). Relative expression level was calculated using REST software (Qiagen, Valencia, Calif., USA).
Gene expression analysis and enzyme assays were performed to better understand the apparent reduction in ACCase activity during Tween-80 feeding. Quantitative real-time PCR was used to measure the expression of genes encoding plastidic ACCase subunits. The specific genes selected for analysis were those originally identified as being embryo expressed in Brassica napus plants (Elborough et al. 1996, Biochemical Journal, 315, 103-112). […] Desalted extracts gave the same result. […] If dephosphorylation is involved in feedback, then treatment with phosphatase would be expected to reduce ACCase activity from inhibited cells to a lesser extent than from the control. If PII interaction is involved, then it is possible that incubation in the presence of 2-oxoglutarate would […] ACCase from a Tween-fed extract more than the control.

Relative gene expression BC: 0.91 ± 0.17 | Relative gene expression BCCP: 1.32 ± 0.58 | Relative gene expression CT-α: 1.02 ± 0.33 | Relative gene expression CT-β: 1.18 ± 0.29
Substance: Tween-80
